From patent US20220184034A1, “METHODS FOR TREATING CUTANEOUS METASTATIC CANCERS” (Adgero Biopharmaceuticals Holdings, Inc., priority 2020, published 2022)

Test system: CMBC lesions
Assay: Four phase 2/3 studies of SnET2 PDT: lesion reaction score and time to lesion evaluation
Assay type: in vivo, patients
Conditions: 1.2 mg/kg; for Median Evaluable Week / Total with Max Reaction During Trial ≥4: 200 J/cm^2, ~24 h, lesions larger than 1 cm; for median time to evaluation: 200 J/cm^2
Procedure: Subsequent studies were conducted with dose parameters of 1.2 mg/kg of photosensitizer, 200 J/cm^2 of light, and 24 hours post administration as a treatment timepoint.
A factor that impacts clinical outcome is the time delay required for post-treatment effects to resolve. This factor is observed in the results from four subsequent phase 2/3 studies of CMBC lesions using a fixed drug dose of 1.2 mg/kg and a fixed light dose of 200 J/cm^2 administered at approximately 24 hours post-infusion. In these studies lesions were first scored for lesion reaction and then scored for lesion treatment response after the lesion reaction had resolved. In the case of lesion reaction scoring, the reaction was first assessed by the investigator at approximately 4-week intervals and assigned a Reaction Score according to the following defined terms: • 0=No erythema, edema or residual eschar • 1=Mild (faint) erythema and/or slight edema present • 2=Moderate erythema and edema present • 3=Severe erythema and edema present • 4=Sloughing, ulceration, and/or eschar present • 5=Eschar requiring debridement
Once a lesion scored a Reaction Score of 0 or 1 it was deemed suitably healed for evaluation, at which time its treatment response was quantified by visual measurement of the two longest dimensions. In those cases where the patient left the study before a reaction score of 0-1 was reached, those lesions were classified as not evaluable.
An analysis conducted of the median time to lesion evaluation (time to reach a reaction score of 0 or 1) in these same four phase 2/3 CMBC trials indicates the time delay for post-treatment effects to resolve was closely associated with the acute (week 1-2 post-treatment) lesion reaction score, with higher acute reaction scores being associated with a longer time to lesion evaluation, consistent with a more severe treatment reaction requiring a longer time to resolve. […] Because larger lesions are most likely to be clinically relevant, this table only includes those lesions from the same four CMBC phase 2/3 trials that had baseline dimensions larger than 1 cm.

[1] = acute lesion reaction score 0-1
[2] = acute lesion reaction score 2-3
[3] = acute lesion reaction score 4-5

Median Evaluable Week [1]: 1 Week
Total with Max Reaction During Trial ≥4 [1]: 14
Median Evaluable Week [2]: 6 Week
Total with Max Reaction During Trial ≥4 [2]: 165
Median Evaluable Week [3]: 12 Week
Total with Max Reaction During Trial ≥4 [3]: 496
median time to evaluation (acute lesion reactions of 2-3): 6 weeks
Substance: tin ethyl etiopurpurin [SnET2]
healing following treatment (200 J/cm^2, 24 hours post administration): slow healing following treatment was observed
median time to evaluation (acute reactions of 4-5 (eschar or ulceration)): 12 weeks
